Results on 5 molecules are retold here after patent US20050118249A1, “Lipid carrier compositions and methods for improved drug retention” (priority 2001, published 2005).

Data set [1] in a line: Retention of idarubicin in liposomes with varying internal citrate after intravenous injection. In kind it is in vivo, Balb/c mice. The conditions noted are these: DSPC/DSPE-PEG2000 (95:5) liposomes; 300 mM citrate (>500 mOsm/kg) in relation to 100 and 150 mM (<500 mOsm/kg); i.v., 0.5-24 h.
Procedure: DSPC/DSPE-PEG2000 (95:5 mole ratio) liposomes prepared with 100, 150 and 300 mM citrate were also loaded with idarubicin at a drug to lipid mole ratio of 0.25:1. Loading was facilitated by incubating the drug and liposomes at 37° C. for 60 minutes. Liposomes were administered to Balb/c mice as indicated and blood samples were removed by cardiac puncture at 0.5, 1, 2, 4 and 24-hours post administration (3 mice per time point). Idarubicin concentration was quantitated using fluorescence intensity at 485 nm as the excitation wavelength and 535 nm as an emission wavelength and using an absorbance wavelength of 482 nm.
Data set [2] in a line: Retention of FUDR in DSPC/DSPG/Chol liposomes in blood after intravenous injection. In kind it is in vivo, Balb/c mice. Conditions: DSPC/DSPG/Chol (70:20:10) liposomes; intraliposomal solution of less than 500 mOsm/kg; i.v., 1, 4, 24 h. How it is done: DSPC/DSPG/Chol (70:20:10 mole ratio) were prepared following the methods of Example 1 except that lipid films were hydrated in either saline or Cu(II)gluconate, pH 7.4 containing 25 mg/mL FUDR at 70° C. Cu(II)gluconate was added at either 100 or 200 mM (321 and 676 mOsm/kg, respectively) and the pH was adjusted to 7.4 by addition of triethanolamine (TEA). Trace amounts of 14C-CHE and ^3H-FUDR were used as lipid and drug markers, respectively. The resulting MLVs were extruded at 75° C. through two stacked 100 nm pore size filters for a total of ten passes. Liposomes were buffer exchanged into HBS, pH 7.4 using a hand-held tangential flow column. A total lipid dose of 3.3 μmoles (165 μmoles/kg) was administered to female Balb/c mice in a final volume of 200 μL immediately after preparation (within 1-2 hrs). Blood samples were removed by cardiac puncture 1, 4 and 24-hours post administration (3 mice per time point). Lipid and FUDR levels were determined using liquid scintillation counting and values were reported as the mean±SD.

Data set [3] can be described thus: Retention of daunorubicin in liposomes in blood after intravenous injection (time course). Format: in vivo, Balb/c mice. Conditions: DSPC/DSPE-PEG2000 (95:5) liposomes; internal citrate 600 mOsm/kg (300 mM) in relation to 300 mOsm/kg (150 mM); i.v., 1, 4, 24 h. Here is the method:
DSPC/DSPE-PEG2000 liposomes (95:5 mole ratio) containing 150 or 300 mM citrate (300 or 600 mOsm/kg), pH 4 and DSPC/Cholesterol (55:45 mole ratio) and DSPC/Cholesterol/DSPE-PEG2000 (50:45:5 mole ratio) liposomes containing 150 mM citrate, pH 4 were prepared as described in Example 1. Liposomes were subsequently combined with daunorubicin at a 0.2:1 drug to lipid mole ratio. To facilitate drug loading, the mixtures were incubated at 40° C. for 60 minutes.
The resulting daunorubicin-containing liposomes were administered to Balb/c female mice at a lipid dose of 165 μmoles/kg as detailed above. Blood samples were removed at 1, 4 and 24 hours post administration by cardiac puncture (3 mice per time point). Lipid levels were determined by liquid scintillation counting. Daunorubicin was extracted from plasma samples and quantified as follows: a defined volume of plasma was adjusted to 200 μL with distilled water followed by addition of 600 μL of distilled water, 100 μL of 10% SDS and 100 μL of 10 mM H2SO4. This solution was mixed and 2 mLs of 1:1 isopropanol/chloroform was added followed by vortexing. […] The bottom organic layer was removed and assayed for fluorescence intensity at 500 nm as the excitation wavelength (2.5 nm bandpass) and 550 nm as an emission wavelength (10 nm bandpass) and using an absorbance wavelength of 480 nm.

The nature of data set [4]: Retention of daunorubicin in liposomes with varying internal citrate, 4 hours after injection. Format: in vivo, Balb/c mice. The conditions noted are these: DSPC/DSPE-PEG2000 (95:5) liposomes; 100, 150 and 200 mM internal citrate (about 200, 300, 400 mOsm/kg); 4 hours after i.v. injection.
Procedure: DSPC/DSPE-PEG2000 (95:5 mole ratio) liposomes containing the non-exchangeable marker 3H-CHE were prepared as described in Example 1, except that lipid films were hydrated with 100, 150, 200, 250 or 300 mM citrate, pH 4.0 (corresponding to osmolarity levels of about 200, 300, 400, 500 or 600 mOsm/kg, respectively).
Daunorubicin was loaded at a 0.2:1 drug-to-lipid mole ratio with the methods detailed above into each of the five liposomal formulations. The resulting liposomes were administered to female Balb/c mice at a lipid dose of 165 μmoles/kg in a final volume of 200 μL immediately after preparation (within 1-2 hrs). Blood samples were removed 4 hours after administration by cardiac puncture (3 mice per time point). Lipid and daunorubicin levels were determined as described previously and percent initial drug-to-lipid ratio was reported as the mean±SD.
Data set [5] can be described thus: Retention of vincristine in liposomes in blood after intravenous injection. Format: in vivo, Balb/c mice. The conditions noted are these: i.v., 1, 4, 24 h. How it is done: Solutions of lipids in chloroform were combined to give a 95:5 molar ratio of DSPC/DSPE-PEG2000 or a 55:45 molar ratio of DSPC/Cholesterol, with trace amounts of ^14C-cholesteryl hexadecyl ether (^14C-CHE). The resulting mixtures were dried under a stream of nitrogen gas and placed in a vacuum pump overnight. The samples were hydrated at 70° C. with either 300 mM citrate, pH 4.0 (about 600 milliosmoles/kg (mOsm/kg)) or 150 mM citrate buffer, pH 4.0 (about 300 mOsm/kg) and passed through an extrusion apparatus (Northern Lipids Inc., Vancouver, BC) ten times with two 100 nm pore size polycarbonate filters at 70° C. Average liposome size was determined by quasi-elastic light scattering using a NICOMP 370 submicron particle sizer operating at a wavelength of 632.8 nm. The resulting liposomes were applied to a Sephadex G50 column equilibrated with HBS (20 mM HEPES, 150 mM NaCl, about 320 mOsm/kg), pH 7.45 to exchange the external liposomal buffer. […]
Vincristine-containing liposomes were administered intravenously to Balb/c mice at a lipid dose of 165 μmoles/kg in a final volume of 200 μL immediately after preparation (within 1-2 hrs). […] Lipid and vincristine levels were quantified by liquid scintillation counting and the values were reported as the mean ± standard deviation (SD).

Data set [6] can be described thus: Drug-to-lipid ratio of irinotecan before and after freezing of dual-loaded DSPC/DSPG liposomes. Format: physicochemical. Conditions: 0-20 mole % cholesterol, with FUDR, 250 mM CuSO4 inside (<500 mOsm/kg), frozen at -20° C. and -70° C. for 24 hours. Here is the method:
FUDR and irinotecan were loaded into cholesterol-free liposomes containing a low osmolarity internal solution and drug retention and liposome size were measured prior to and after freezing. DSPC/DSPG liposomes containing 0-20 mole % cholesterol, 20 mole % DSPG and passively entrapped FUDR were prepared as described previously and hydrated in 250 mM CuSO4 (<500 mOsm/kg). The MLVs were extruded at 70° C. as detailed above and buffered exchanged into saline and then into 300 mM sucrose, 20 mM Hepes, 30 mM EDTA (SHE), pH 7.4 using a hand-held tangential flow column. The sample was then further exchanged into 300 mM sucrose, 20 mM Hepes, pH 7.4 to remove residual EDTA. The liposomes were subsequently loaded with irinotecan at a drug-to-lipid mole ratio of 0.1:1 by mixing the two solutions at 50° C. for five minutes. The dual-loaded liposomes were then buffered exchanged into HBS using tangential flow to remove any unencapsulated drug.
The influence of freezing on liposome stability was determined by freezing the liposomes at either −20° C. or −70° C. for 24 hours. […] Lipid and FUDR levels were quantified using liquid scintillation and absorbance at 370 nm was used to determine irinotecan concentration. Particle sizing of the liposomes was also determined prior to and after freezing using quasi-elastic light scattering.

For `CC(=O)[C@]1(O)Cc2c(O)c3c(c(O)c2[C@@H](O[C@H]2C[C@H](N)[C@H](O)[C@H](C)O2)C1)C(=O)c1ccccc1C3=O` [idarubicin], the “idarubicin retention (idarubicin-to-lipid mole ratio in the blood)” value in data set [1] is reported as “significantly decreased”.

Turning to `O=c1[nH]c(=O)n([C@H]2C[C@H](O)[C@@H](CO)O2)cc1F` [FUDR, Floxuridine], in data set [2], the “FUDR retention (FUDR levels remaining in the blood)” value is listed as “optimally retained”.

In the case of `COc1cccc2c1C(=O)c1c(O)c3c(c(O)c1C2=O)C[C@@](O)(C(C)=O)C[C@@H]3O[C@H]1C[C@H](N)[C@H](O)[C@H](C)O1` [daunorubicin], in data set [3], the “daunorubicin retention (percent initial daunorubicin-to-lipid ratio remaining in the blood)” value was “compromised”. Also, the “retention of daunorubicin (percent initial daunorubicin-to-lipid ratio remaining in the blood)” value in data set [4] is on record as “optimal retention”.

Regarding `CC[C@]1(O)C[C@H]2CN(CCc3c([nH]c4ccccc34)[C@@](C(=O)OC)(c3cc4c(cc3OC)N(C=O)[C@H]3[C@@](O)(C(=O)OC)[C@H](OC(C)=O)[C@]5(CC)C=CCN6CC[C@]43[C@@H]65)C2)C1` [vincristine], the “retention of vincristine (percent initial vincristine-to-lipid weight ratio in the blood)” value in data set [5] (DSPC/DSPE-PEG2000 (95:5 mole ratio) liposomes, internal citrate 300 mOsm/kg (150 mM) compared to 600 mOsm/kg (300 mM)) is “significantly enhanced”; in data set [5] (DSPC/cholesterol (55:45 mole ratio) liposomes, 150 mM vs 300 mM internal citrate), “independent of the osmolarity of the intraliposomal solution”.

In the case of `CCc1c2c(nc3ccc(OC(=O)N4CCC(N5CCCCC5)CC4)cc13)-c1cc3c(c(=O)n1C2)COC(=O)[C@]3(O)CC` [irinotecan], in data set [6], the “retention of irinotecan after freezing (drug-to-lipid ratio)” value is given as “effectively retained”.
